Consider two compounds from patent US20090186088A1, “INHALABLE DRUG” (NanoMaterials Technology Pte Ltd, priority 2005, published 2009).

For series [1] the following is noted: British Pharmacopoeia; cited from earlier work.
Series [2] is classed as physicochemical. An excerpt:
The aim of this experiment was to achieve a suspension containing fine Salbutamol sulfate precipitate. […] Alcohol (ethanol) therefore was considered to be the best choice, considering the safety of the possible solvents. The solubility of a solid is a function of the solid particle size according to Equation 1
where R is the gas constant, T the absolute temperature, S and Sr the solubility of large solid particles and of particles having small radius r respectively, and M, σ, and d are the molecular weight, surface tension, and density of the solid respectively. It will be appreciated from Eq. 1 that the solubility of a solid will increase as the particle size decreases. […] Consequently, when one considers the yield of the process, alcohol no longer appears suitable. […] Further, IPA is a commonly used organic solvent.

Series [3] can be described thus: Dispersion experiments in multi-stage liquid impinger (MSLI), fine particle fraction. The note with it: beaker-synthesised powder, 60 L/min, 4 seconds. The format is physicochemical. From the text:
The measurement of particle sizes in vitro allows a simplistic estimation of the aerodynamic particle size distribution. This process utilizes cascade or impactor devices such as the multi-stage liquid impinger (MSLI) (FIG. 7) to provide a breakdown of the particle size distribution through separation and collection of powder of different Da.
The MSLI consists of 5 stages which have been calibrated at 60 L/min to collect powder of a certain Da, known as the cut-off Da:
At flow rates of 60-100 L/min, the particles which have a Da of less than 5 μm are expected to be able to surpass oropharangeal deposition and the filter of the MSLI from equation 3. From the results of the MSLI, the FPF (fine particle fraction) can be calculated, and expressed as two different forms: […]
The recovery was also calculated for each dispersion which represents the mass of powder which was accounted for compared with the mass which was loaded into the capsules (Equation 6).
The equipment used to perform the dispersion experiments was the MSLI, which has been described earlier. […] The supernatant was then collected. • Step 11: All rinsings were collected into separately labeled glass vials and analyzed by UV immediately to minimize the effect of evaporation, which would produce an overestimation of the concentration collected.

In the case of `CC(C)(C)NCC(O)c1ccc(O)c(CO)c1` (stereo not shown) [Salbutamol base], in series [1], the solubility in alcohol entry is “soluble”, the solubility in ether entry was “slightly soluble” and the solubility in water entry is reported as “sparingly soluble”.

Take Salbutamol sulfate: in series [1], the solubility in alcohol entry is recorded as “slightly soluble”, the solubility in ether entry was “slightly soluble”, the “solubility in methylene chloride” value is given as “very slightly soluble” and the solubility in water entry is recorded as “freely soluble”. In addition, the “solubility in IPA” value in series [2] is reported as “somewhat lower than in alcohol”. For the same compound, in series [3], the “reduction in FPF(emitted), Rotahaler vs Aeroliser” value was roughly 30% and the “reduction in FPF(total), Rotahaler vs Aeroliser” value is roughly 20%.
